From patent US7579468B2, “Methods of modulating neurotrophin-mediated activity” (PainCeptor Pharma Corporation, priority 2005, dated 2009)
Entries after “also recorded” stand apart in the source; their conditions may differ.

What was measured:
[1] = tested on: Mice; test: Writhing Test (acetic acid abdominal contraction test); type: in vivo, mouse
Description: The acetic acid abdominal contraction test (Martinez et al., Pain 1999; 81: 179) was used to determine the efficacy of different compounds in a model of acute visceral chemical nociception. […] Compound or vehicle was administered (i.p. or s.c.) 15-45 minutes prior to the acetic acid injection. Each episode of writhing is characterized by a lengthwise stretching of the torso with a concomitant arching of the back.
Statistical analysis was performed using Prism™ 4.01 software package (GraphPad, San Diego, Calif., USA). The difference in response levels between treatment groups and control vehicle group was analyzed using an ANOVA followed by Bonferroni's method for post-hoc pair-wise comparisons. A p value <0.05 was considered to be significant.

[2] = tested on: T1, PC12 (TrkA & p75); test: 125I-NGF binding displacement in PC12 cells; parameters: species or system rat; details: PC12 cells expressing TrkA and p75; individual experiment
T1 construct: other: Concentration 25 μM; PC12 cells; other: Concentration 50 μM; other: PC12 cells; 125I-NGF ~0.11 nM; other: PC12 cells expressing TrkA and p75; individual experiment; fused on or other part: 125I label on NGF
Description: (§1) All cells were incubated at 37° C. in 5% CO2. PC12 cells were maintained in RPMI-1640 medium supplemented with 10% fetal bovine serum (FBS). A875 human melanoma cells were maintained in DMEM with 10% FBS. HEK 293 cells were stably transfected with human TrkA plasmid (see below) and maintained in DMEM with 10% FBS and G418 (600 μg/mL) for selection.
(§2) NGF binding was evaluated using methods familiar to those who are skilled in the art. Briefly, cells expressing one or both NGF receptors (PC12: TrkA+p75; A875: p75 alone; HEK_TrkA: TrkA alone) were harvested by replacing the medium with calcium-magnesium free balanced salt (Grey's) solution and incubating at 37° C. for 15 min. For NGF binding, cells were resuspended at a concentration of 2×10^6 cells/mL in HEPES-Krebs-Ringer (HKR) buffer (10 mM HEPES; 125 mM NaCl; 4.8 mM KCl; 1.3 mM CaCl2; 1.2 mM MgSO4; 1.2 mM KH2PO4; 1 mg/ml BSA; 1 mg/ml glucose; pH 7.4) and exposed to ^125I-NGF (˜0.11 nM) in the presence or absence of varying concentrations of the compound. Non-specific binding was determined for reference by incubating ^125I-NGF with an excess of non-radioactive NGF in the absence of compound. Following a two-hour incubation period at 4° C., ^125I-NGF bound to the cells was quantified in a gamma radiation counter following separation from unbound NGF by filtration or centrifugation through glycerol (10% in HKR). Inhibition of binding was calculated as a percent of the specific binding (calculated as the differential between ^125I-NGF binding in the absence and presence of an excess of non-radioactive NGF without compound). Dose-response inhibition curves were typically generated with seven concentrations of a given compound, with three replicates for each concentration. For most compounds, multiple dose-response curves were generated.

[3] = tested on: T2, PC12 (TrkA & p75); test: 125I-NGF binding displacement in PC12 cells; parameters: species or system rat; details: PC12, A875 and HEK_TrkA cells taken together
T2 construct: other: PC12, A875 an; fused on or other part: 125I label on NGF
Description: as §1, §2

[4] = tested on: PC12 cells; test: NGF-induced neurite outgrowth in PC12 cells; type: cell-based, rat; details: 4 days of exposure to NGF
Description: This assay was run as a further functional marker of NGF antagonism and takes advantage of the differentiation of PC12 cells (neurite outgrowth) induced by NGF. Cultures of PC12 cells were grown on Terasaki plates pre-coated with poly-D-lysine. Cells were exposed to NGF (1-50 (preferably 5) ng/ml) to induce neurite outgrowth as described elsewhere [L A Greene & A S Tischler, Establishment of a noradrenergic clonal line of rat adrenal pheochromocytoma cells which respond to nerve growth factor, Proc Natl Acad Sci USA. 1976 July; 73(7): 2424-2428]. In addition to NGF, cells were exposed to varying concentration of the compounds or vehicle. Following 4 days of exposure to NGF in the presence or absence of compound, neurite outgrowth was quantified. A neurite was scored if its caliber from origin to terminal was approximately the same and the length was equal to or greater than 1.5 the cell body diameter. The number of neurite bearing cells per total number of viable cells was calculated for each condition; the number of cells with neurites in the presence of NGF (without compound exposure) was considered to represent maximal (100%) outgrowth, to which the inhibitory effect of compounds of the invention on NGF-induced outgrowth was compared.

[5] = tested on: Male Sprague-Dawley rats; test: Formalin Model - model of acute tonic pain; type: in vivo, rat; details: 6.5, 12.5 and 25 mg/kg i.p., Phase II
Description: Male Sprague-Dawley rats were given a subcutaneous injection of 50 μl of 2.5% formalin into the plantar surface of one hindpaw using a 27 gauge syringe needle, and nociceptive responses were measured for the next 60 min. Compound or vehicle was administered (i.p. or s.c.) 15-45 minutes prior to the formalin injection. A nociceptive score was determined for each 5 min block by measuring the amount of time spent in each of four behavioral categories: 0, the injected hindpaw is indistinguishable from that of the contralateral paw; 1, the injected paw has little or no weight placed on it; 2, the injected paw is elevated and is not in contact with any surface; 3, the injected paw is licked, bitten, or shaken. A weighted nociceptive score, ranging from 0 to 3 was calculated by multiplying the time spent in each category by the category weight, summing these products, and dividing by the total time for each 5 min block of time (Coderre et al., Pain 1993; 54: 43). On the basis of the resulting response patterns, 2 phases of nociceptive behaviour were identified and scored: first phase (P1; 0-5 min) and second phase (P2; 11-40 min).
Statistical analysis was performed using Prism™ 4.01 software package (GraphPad, San Diego, Calif., USA). […]

CC(=O)Nc1cc2c3c(cc(NC(C)=O)cc3c1)C(=O)N(CCCC(=O)O)C2=O [Compound 11, 4-(5,8-Bis-acetylamino-1,3-dioxo-1H,3H-benzo[de]isoquinolin-2-yl)-butyric acid]
Number of abdominal contractions (writhing) ([1]; 15 mg/kg i.p., 30 minutes following acetic acid, vehicle 54±6): 28±4 | Antinociceptive effect in the Writhing Test ([1]; Compound 63 100 mg/kg i.p., Compound 11 15 mg/kg i.p., 10-20 minutes before acetic acid): significant antinociceptive effects | NGF binding displacement, dose-response curve [2]: effectively blocks NGF binding to cells expressing TrkA and p75 | Block of NGF binding to TrkA and/or p75 (summary of FIGS. 1B, 2A, 2B, 4A, 4B, 6A, 6B, 7A, 8A, 8B) [3]: effectively block NGF binding to TrkA and/or p75 | Inhibition of NGF-induced neurite outgrowth [4]: effectively inhibit neurite outgrowth induced by NGF | Antinociceptive effect in the Formalin Test [5]: significant dose-dependent antinociceptive effect; also recorded: significant antinociceptive effects
